The values that follow come from patent US9133492B2, “Kanamycin compound, kanamycin-producing Streptomyces species bacterium, and method of producing kanamycin” (iNtRON Biotechnology, Inc., priority 2010, dated 2015).

Experiment [1] has as its system E. coli ATCC 25922(Kan^S). In words: microbe, parasite or virus in culture. In kind it is cell-based, Escherichia coli. The note with it: Escherichia coli, ATCC25922. As to the method: (§1) In one embodiment of the present invention, antibacterial spectra against kanamycin intermediates and analogs produced by the present invention were measured. Typical gram-negative strains (E. coli and Pseudomonas aeruginosa) and four clinically isolated strains were employed to check the antibacterial spectra (See table 2).
(§2) To check the antibacterial spectra of kanamycin biosynthetic intermediates and their analogs, a total six kinds of Gram-negative bacteria such as kanamycin-sensitive (Kan^S) E. coli ATCC 25922, kanamycin-resistant (Kan^R) Pseudomonas aeruginosa ATCC 27853, Kan^S E. coli CCARM (Culture Collection of Antimicrobial Resistant Microbes, Korea) 1A020, Kan^R E. coli CCARM 1A023, amikacin-sensitive (Amk^S) P. aeruginosa CCARM 2206, and amikacin-resistance (Amk^R) P. aeruginosa CCARM 2178 were used.
(§3) Minimum inhibitory concentrations (MICs) of various kanamycin-related pseudodi- and tri-saccharides and AHBA conjugated kanamycin analogs (except for compounds 16, 18, 19, and 20) were measured by broth microdilution according to the Clinical and Laboratory Standard Institute (CLSI, formerly NCCLS). As described in Example 2, gram-negative E. coli strains, P. aeruginosa strains, and clinically isolated strains were incubated in Mueller-Hinton broth (BD Science) at 30° C. […] An aliquot of water was used as a negative control group. The growth of the strains was observed using the Labsystems Bioscreen C, and the minimum concentrations of the aminoglycoside diluted in the broth medium to inhibit the growth of the bacterial strains were measured.

For experiment [2], the system named is P. aeruginosa ATCC 27853(Kan^R). In words: microbe, parasite or virus in culture. Type of experiment: cell-based. To be noted: Pseudomonas aeruginosa, ATCC27853. As to the method:
as §1, §2, §3

The test system of experiment [3] is E. coli CCARM 1A020(Kan^S). In words: MIC by broth microdilution (CLSI), antibacterial spectra. Type of experiment: cell-based, Escherichia coli. To be noted: Escherichia coli; E. coli CCARM 1A020, kanamycin-sensitive clinically isolated strain; read-out: MIC. Here is the method:
as §1, §2, §3
In general terms: Dilution methods test growth across graded concentrations, often in twofold steps.

Experiment [4] has as its system E. coli CCARM 1A023(Kan^R). The description is as above. In kind it is cell-based, Escherichia coli. To be noted: Escherichia coli; E. coli CCARM 1A023, kanamycin-resistant clinically isolated strain; read-out: MIC. As to the method: as §1, §2, §3
Experiment [5] relates to P. aeruginosa CCARM 2178(Amk^R). The experiment is described as above. In kind it is cell-based, Pseudomonas aeruginosa. Here is the method: as §1, §2, §3
Experiment [6] deals with P. aeruginosa CCARM 2206(Amk^S). The experiment is described as above. Type of experiment: cell-based, Pseudomonas aeruginosa. To be noted: Pseudomonas aeruginosa, CCARM2206; P. aeruginosa CCARM 2206, amikacin-sensitive clinically isolated strain; read-out: MIC. As to the method:
as §1, §2, §3

The subject of experiment [7] is Gram-negative bacteria (E. coli and Pseudomonas aeruginosa test strains). In words: Antibacterial spectra, comparison across test strains. In kind it is cell-based. As to the method: as §1, §2, §3
In experiment [8] the test system is S. venezuelae. In words: Resistance of S. venezuelae strains to kanamycin. Type of experiment: cell-based, Streptomyces venezuelae. Here is the method: As expected, the recombinant heterologous strain expressing kanA-kanB-kanK (DOS strain) produced compound 1 (21.4 μM) (FIG. 2A). To confer resistance to kanamycin in S. venezuelae without modifying the aminoglycoside structure, three resistance genes gtmF-gtmK-gtmL from the gentamicin gene cluster were introduced into the recombinant heterologous strain. Transformants expressing these genes were resistant to >10.0 mg/ml of the commercially available kanamycin compared to 1.0 μg/ml in control strains. These resistance genes were expressed together with the kanamycin biosynthetic genes in the heterologous host in subsequent experiments.

In brackets after ≈: the same amount, converted by molar mass.

Consider `NCC[C@H](O)C(=O)N[C@@H]1C[C@H](N)[C@@H](O[C@H]2O[C@H](CO)[C@@H](O)[C@H](O)[C@H]2O)[C@H](O)[C@H]1O[C@H]1O[C@H](CO)[C@@H](O)[C@H](N)[C@H]1O` [Compound 17, 1-N-AHBA-kanamycin X], for which the MIC in experiment [1] was determined as 16 µg/mL (≈ 27.3 µM); in experiment [2], 16 µg/mL (≈ 27.3 µM); in experiment [3] it was 32 µg/mL (≈ 54.6 µM); in experiment [4], 16 µg/mL (≈ 27.3 µM); in experiment [5] (Pseudomonas aeruginosa, CCARM2178, P. aeruginosa CCARM 2178, amikacin-resistant clinically isolated strain, read-out: MIC), 64 µg/mL (≈ 109 µM); in experiment [6] it was 0.25 µg/mL (≈ 0.426 µM). Further, the antibacterial effect entry in experiment [5] (amikacin-resistant P. aeruginosa) is reported as “antibacterial effect”. Moreover, the “MIC / activity” value in experiment [5] (clinically isolated amikacin-resistant P. aeruginosa strain) is on record as roughly 64. Besides, in experiment [7] (against all kanamycin and amikacin-resistant test strains), the “antibacterial activity” value is given as “strong antibacterial activity”. The “antibacterial activity compared with amikacin (compound 15)” value in experiment [7] (against all the test strains) is on record as “improved antibacterial activity”.

For the compound `NC[C@H]1O[C@H](O[C@H]2[C@H](O)[C@@H](O[C@H]3O[C@H](CO)[C@@H](O)[C@H](N)[C@H]3O)[C@H](N)C[C@@H]2N)[C@H](O)[C@@H](O)[C@@H]1O` [kanamycin], the “kanamycin concentration the strain is resistant to” value in experiment [8] (S. venezuelae transformants expressing resistance genes gtmF-gtmK-gtmL) was greater than 10.0 mg/mL; in experiment [8] (control strains) it was 0.001 mg/mL.
